The structures appear in SMILES notation.

T1 sequence (P00746 26-253): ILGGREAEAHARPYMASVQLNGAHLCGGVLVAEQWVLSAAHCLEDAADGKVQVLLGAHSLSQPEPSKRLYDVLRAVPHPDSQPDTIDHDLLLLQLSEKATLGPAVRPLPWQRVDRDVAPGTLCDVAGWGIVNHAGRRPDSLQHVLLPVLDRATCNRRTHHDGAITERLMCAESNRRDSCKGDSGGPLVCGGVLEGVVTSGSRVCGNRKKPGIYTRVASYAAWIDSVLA

The experiment has as its target T1, factor D (Homo sapiens, UniProt P00746).
T1 construct: made in house; host or cells: E. coli
As to the kind of experiment: factor D inhibition assay of Biological Example 2. The experiment is classed as biochemical.
What is called IC50 is the concentration that inhibits the measured activity by half. Low readings indicate greater potency, high ones weaker potency. For `CN(Cc1cc(COc2ccccc2CC(=O)O)cc(-c2cccc(CN)c2)c1)CC(F)(F)F` [Example 208-G], the midpoint of inhibition, the IC50, lay at 6 nM. This lies in the single-digit nanomolar range.
The result for `Cn1cc(-c2cc(COc3ccccc3CC(=O)O)cc(-c3cccc(CN)c3)c2)cn1` [Example 208-H] reads 4 nM; that for `NCc1cccc(-c2cc(COc3ccccc3CC(=O)O)cc(-c3cc4ccccc4[nH]3)c2)c1` [Example 209-A], 3 nM; that for `NCc1cccc(-c2cc(COc3ccccc3CC(=O)O)cc(-c3ccn[nH]3)c2)c1` [Example 209-B], 4 nM.
The result for `CC(C)n1cc(-c2cc(COc3ccccc3CC(=O)O)cc(-c3cccc(CN)c3)c2)cn1` [Example 209-C] reads 5 nM; that for `CC(C)Cn1cc(-c2cc(COc3ccccc3CC(=O)O)cc(-c3cccc(CN)c3)c2)cn1` [Example 209-D], 4 nM; that for `COCCn1cc(-c2cc(COc3ccccc3CC(=O)O)cc(-c3cccc(CN)c3)c2)cn1` [Example 209-E], 5 nM.
`Cc1cc(COc2ccccc2CC(=O)O)cc(-c2cccc([C@@H](C)N)c2F)c1` [Example 210-C, (R)-2-(2-((3′-(1-aminoethyl)-2′-fluoro-5-methyl-[1,1′-biphenyl]-3-yl)methoxy)phenyl)acetic acid] yielded a half-inhibitory concentration (IC50) of 12 nM. This IC50 lies about 2.4-fold higher than the previous one.
The result for `C[C@@H](N)c1cccc(-c2cc(COc3ccccc3CC(=O)O)c3cn[nH]c3c2)c1F` [Example 211-C] reads 9 nM; that for `C[C@@H](N)c1cccc(-c2cc(COc3ccccc3CC(=O)O)cc(OCc3ccccn3)c2)c1F` [Example 213, (R)-2-(2-((3′-(1-Aminoethyl)-2′-fluoro-5-(pyridin-2-ylmethoxy)-[1,1′-biphenyl]-3-yl)methoxy)phenyl)acetic acid], 5 nM; that for `C[C@@H](N)c1cccc(-c2cc(COc3ccccc3CC(=O)O)cc(OCCN3CCOCC3)c2)c1F` [Example 214-A], 10 nM.
The result for `C[C@@H](N)c1cccc(-c2cc(COc3ccccc3CC(=O)O)cc(OCc3nccs3)c2)c1F` [Example 214-B] reads 5 nM; that for `C[C@@H](N)c1cccc(-c2cc(COc3ccccc3CC(=O)O)cc(OCCF)c2)c1F` [Example 214-C], 8 nM; that for `C[C@@H](N)c1cccc(-c2cc(COc3ccccc3CC(=O)O)cc(OCC3CCOCC3)c2)c1F` [Example 214-D], 18 nM.
The result for `C[C@@H](N)c1cccc(-c2cc(COc3ccccc3CC(=O)O)cc(OCc3ccn(C)n3)c2)c1F` [Example 214-E] reads 8 nM; that for `C[C@@H](N)c1cccc(-c2cc(COc3ccccc3CC(=O)O)cc(OCc3ccncc3)c2)c1F` [Example 214-F], 3 nM.
The compound `C[C@@H](N)c1cccc(-c2cc(COc3ccccc3CC(=O)O)cc(OCCN3CCCC3)c2)c1F` [Example 214-G] yielded an IC50 of 22 nM.
The result for `C[C@@H](N)c1cccc(-c2cc(COc3ccccc3CC(=O)O)cc(OCC3CCCC3)c2)c1F` [Example 214-H] reads 700 nM.
The result for `COc1cc(COc2ccccc2CC(=O)O)cc(-c2cccc([C@@H](C)N)c2F)c1` [Example 214-I] reads 7 nM; that for `C[C@@H](N)c1cccc(-c2cc(COc3ccccc3CC(=O)O)cc(OCc3ccncn3)c2)c1F` [Example 214-J], 9 nM; that for `C[C@@H](N)c1cccc(-c2cc(COc3ccccc3CC(=O)O)cc(OCc3ncn(C)n3)c2)c1F` [Example 214-K], 15 nM.
The result for `C[C@@H](N)c1cccc(-c2cc(COc3ccccc3CC(=O)O)cc(OCc3cccnc3)c2)c1F` [Example 214-L] reads 12 nM.
For `C[C@H](N)c1cccc(-c2cc(COc3ccccc3CC(=O)O)cc(OCc3ccccn3)c2)c1F` [Example 214-M], the concentration for half-maximal inhibition (IC50) came out at 20 nM. This IC50 is about 1.7-fold higher than that of the compound before.
The result for `C[C@H](N)c1cccc(-c2cc(COc3ccccc3CC(=O)O)cc(OCc3nccs3)c2)c1F` [Example 214-N] reads 5 nM.
The result for `C[C@H](N)c1cccc(-c2cc(COc3ccccc3CC(=O)O)cc(OCCF)c2)c1F` [Example 214-O] reads 71 nM; that for `C[C@H](N)c1cccc(-c2cc(COc3ccccc3CC(=O)O)cc(OCc3cncn3C)c2)c1F` [Example 214-P], 14 nM; that for `C[C@@H](N)c1cccc(-c2cc(COc3ccccc3CC(=O)O)cc(OCc3cncn3C)c2)c1F` [Example 214-Q], 10 nM.
The result for `C[C@@H](N)c1cccc(-c2cc(O)cc(COc3ccccc3CC(=O)O)c2)c1F` [Example 214-R] reads 7 nM; that for `NC(CF)c1cccc(-c2cccc(COc3ccccc3CC(=O)O)c2)c1F` (stereo not shown) [Example 215, 2-(2-((3′-(1-amino-2-fluoroethyl)-2′-fluoro-[1,1′-biphenyl]-3-yl)methoxy)phenyl)acetic acid], 8 nM.
As for `C[C@@H](N)c1cccc(-c2cc(NCC3CC3)cc(N(C)Cc3ccccc3CC(=O)O)c2)c1F` [Example 216-AA], the IC50 came out at 32 nM.
Consider `C[C@@H](N)c1cccc(-c2cc(NC[C@@H]3CCCO3)cc(N(C)Cc3ccccc3CC(=O)O)c2)c1F` [Example 216-AB], for which the IC50 is 55 nM.
The result for `C[C@@H](N)c1cccc(-c2cc(NCC(F)F)cc(N(C)Cc3ccccc3CC(=O)O)c2)c1F` [Example 216-AC] reads 33 nM.
Regarding `C[C@@H](N)c1cccc(-c2cc(CNC3CC3)cc(COc3ccccc3CC(=O)O)c2)c1F` [Example 216-AD], half-maximal inhibition (IC50) required 20 nM.
The result for `C[C@@H](N)c1cccc(-c2cc(COc3ccccc3CC(=O)O)cc(CN3CCOCC3)c2)c1F` [Example 216-AE] reads 53 nM; that for `C[C@@H](N)c1cccc(-c2cc(CNc3ccn(C)n3)cc(COc3ccccc3CC(=O)O)c2)c1F` [Example 216-AF], 16 nM; that for `C[C@@H](N)c1cccc(-c2cc(CNC3CCOC3)cc(COc3ccccc3CC(=O)O)c2)c1F` (stereo partly shown) [Example 216-AG], 24 nM.
`C[C@@H]1CN(Cc2cc(COc3ccccc3CC(=O)O)cc(-c3cccc([C@@H](C)N)c3F)c2)C[C@H](C)O1` [Example 216-AH] had an IC50 of 90 nM.
The compound `C[C@@H](N)c1cccc(-c2cc(COc3ccccc3CC(=O)O)cc(CN3CCCOCC3)c2)c1F` [Example 216-AI] gave an IC50 of 24 nM.
The result for `C[C@@H](N)c1cccc(-c2cc(COc3ccccc3CC(=O)O)cc(CN3CCCC3)c2)c1F` [Example 216-AJ] reads 460 nM.
As to `N[C@H](CF)c1cccc(-c2cc(COc3ccccc3CC(=O)O)cc(NCC3CC3)c2)c1F` [Example 216-A], the concentration for half-maximal inhibition (IC50) stood at 7 nM.
Take `N[C@@H](CF)c1cccc(-c2cc(COc3ccccc3CC(=O)O)cc(NCC3CC3)c2)c1F` [Example 216-B]: the IC50 was 56 nM. This IC50 is about 8-fold higher than that of the compound before.
The result for `C[C@H](N)c1cccc(-c2cc(COc3ccccc3CC(=O)O)cc(NCC3CCCC3)c2)c1F` [Example 216-C] reads 6 nM.
The result for `C[C@@H](N)c1cccc(-c2cc(COc3ccccc3CC(=O)O)cc(NCC3CCCC3)c2)c1F` [Example 216-D] reads 2 nM; that for `NC(CF)c1cccc(-c2cc(COc3ccccc3CC(=O)O)cc(NCC3CCCC3)c2)c1F` (stereo not shown) [Example 216-E], 6 nM; that for `C[C@@H](N)c1cccc(-c2cc(COc3ccccc3CC(=O)O)cc(N(C)CC3CCCC3)c2)c1F` [Example 216-F], 31 nM.
The result for `C[C@@H](N)c1cccc(-c2cc(COc3ccccc3CC(=O)O)cc(N(C)CC3CCCO3)c2)c1F` (stereo partly shown) [Example 216-G] reads 7 nM; that for `C[C@@H](N)c1cccc(-c2cc(COc3ccccc3CC(=O)O)cc(N(C)C[C@@H]3CCCO3)c2)c1F` [Example 216-H], 5 nM.
On to `C[C@@H](N)c1cccc(-c2cc(COc3ccccc3CC(=O)O)cc(N(C)C[C@H]3CCCO3)c2)c1F` [Example 216-I], for which the midpoint of inhibition, the IC50, lay at 13 nM. Against the preceding compound, the IC50 is about 2.6-fold higher.
Compound `CCN(C[C@@H]1CCCO1)c1cc(COc2ccccc2CC(=O)O)cc(-c2cccc([C@@H](C)N)c2F)c1` [Example 216-J] gave an IC50 of 3 nM.
The result for `C[C@@H](N)c1cccc(-c2cc(COc3ccccc3CC(=O)O)cc(NCCF)c2)c1F` [Example 216-K] reads 2 nM; that for `C[C@@H](N)c1cccc(-c2cc(COc3ccccc3CC(=O)O)cc(N(C)CCF)c2)c1F` [Example 216-L], 24 nM.
The result for `C[C@@H](N)c1cccc(-c2cc(COc3ccccc3CC(=O)O)cc(NCC(F)F)c2)c1F` [Example 216-M] reads 13 nM.
The compound `C[C@@H](N)c1cccc(-c2cc(COc3ccccc3CC(=O)O)cc(N(C)CC(F)F)c2)c1F` [Example 216-N] showed an IC50 of 24 nM.
The result for `C[C@H](N)c1cccc(-c2cc(CCc3ccncc3)cc(COc3ccccc3CC(=O)O)c2)c1F` [Example 216-O] reads 78 nM; that for `C[C@@H](N)c1cccc(-c2cc(CCc3ccncc3)cc(COc3ccccc3CC(=O)O)c2)c1F` [Example 216-P], 13 nM.
The compound `NC(CF)c1cccc(-c2cc(CCc3ccncc3)cc(COc3ccccc3CC(=O)O)c2)c1F` (stereo not shown) [Example 216-Q] displayed an IC50 of 12 nM.
`C[C@@H](N)c1cccc(-c2cc(COc3ccccc3CC(=O)O)cc(C(=O)N(C)C)c2)c1F` [Example 216-R] showed an IC50 of 147 nM.
Regarding `C[C@@H](N)c1cccc(-c2cc(Cl)cc(COc3ccccc3CC(=O)O)c2)c1F` [Example 216-S], it took 21 nM to reach half-maximal inhibition (IC50).
The result for `C[C@@H](N)c1cccc(-c2cc(COc3ccccc3CC(=O)O)cc(NCc3ccccn3)c2)c1F` [Example 216-T] reads 9 nM; that for `C[C@@H](N)c1cccc(-c2cc(COc3ccccc3CC(=O)O)cc(NC3CCCC3)c2)c1F` [Example 216-U], 5 nM.
The result for `C[C@@H](N)c1cccc(-c2cc(COc3ccccc3CC(=O)O)cc(N3CCCC3)c2)c1F` [Example 216-V] reads 9 nM.
The result for `C[C@@H](N)c1cccc(-c2cc(NC[C@H]3CCCO3)c3c(c2)C(Oc2ccccc2CC(=O)O)CCO3)c1F` (stereo partly shown) [Example 216-W] reads 17 nM.
In turn, `C[C@@H](N)c1cccc(-c2cc(NCC3CC3)c3c(c2)C(Oc2ccccc2CC(=O)O)CCO3)c1F` (stereo partly shown) [Example 216-X] had an IC50 of 14 nM.
The result for `C[C@@H](N)c1cccc(-c2cc(NC[C@H]3CCCO3)c3c(c2)C(Oc2ccccc2CC(=O)O)CCC3)c1F` (stereo partly shown) [Example 216-Y] reads 19 nM.
